Measurements: publication PMC6430017, “Structural and chemical insights into the covalent-allosteric inhibition of the protein kinase Akt” (Chemical Science, 2019)

Experiments:
AN3CA = test: Cell viability assay (CellTiter-Glo); type: cell-based; details: Homo sapiens, AN3-CA, 120 h; AN3CA (endometrium), day 5; read-out: Cell viability assay EC50
Procedure: Cell Culture and Viability Assay
(§1) analysis, cells were plated on day 0 into white 384-well cell culture plates (Greiner Bio-One) using a
(§2) Multidrop reagent dispenser (Thermo) at cell numbers that ensure linear and optimal luminescent
(§3) signal intensity (AN3-CA: 800 cells/well; BT-474: 400 cells/well; Dan-G: 400 cells/well; HPAF-II: 400
(§4) cells/well). Then the cells were incubated for 24 h in a humidified atmosphere at 37 °C/5 % CO2. The
(§5) cells were treated with inhibitors in serial dilutions ranging from 30 µM down to 0.1 nM using an Echo
(§6) 520 acoustic liquid handler (Labcyte Inc.). Cell viability was analysed on day 5 using the CellTiter-Glo
(§7) assay (Promega) as per manufacturer’s instructions. Luminescence signal was recorded by an EnVision
(§8) Multilabel 2104 Plate Reader (PerkinElmer) with 500 ms integration time. All data were normalized to
(§9) the plate positive control (30 µM staurosporine) and negative control (DMSO). Finally, the data was
(§10) processed with the Quattro Software Suite using a four parameter logistic model. As a quality control,
(§11) the Z’-factor was calculated from 16 positive and negative control values. Only assay results showing
(§12) a Z’-factor ≥ 0.5 were used for further analysis. All experimental points were measured in duplicates
(§13) for each plate and were replicated in at least three times.

GRK6 = GRK6 (Homo sapiens, UniProt P43250); test: SelectScreen Z'LYTE kinase profiling; type: biochemical; details: ATP at apparent KM
Procedure: (§14) protein kinases at a compound concentration of 1 µM. Measurements were performed in duplicates
(§15) and at the particular apparent ATP KM of each individual kinase employing the activity based Z’LYTE®
(§16) kinase assay of the SelectScreen® Kinase Profiling Services (ThermoFisher Scientific).
(§17) kinases at a compound concentration of 1 µM. Measurements were performed in duplicates and at
(§18) the particular apparent ATP KM of each individual kinase employing the activity based Z’LYTE® kinase
(§19) assay of the SelectScreen® Kinase Profiling Services (ThermoFisher Scientific).

full-length Akt (Akt^wt) [1] = target: T1, full-length Akt (Akt^wt) (Homo sapiens, UniProt P31749); test: HTRF KinEASE activity-based assay, IC50 determination; type: biochemical
Procedure: (§20) The biochemical inhibitory activity (IC50) was determined with the HTRF KinEASE assay from Cisbio as
(§21) previously described.1 All reagents for HTRF experiments were purchased from Cisbio Bioassays,
(§22) France. The measurements were analyzed using the Quattro Software Suite for IC50-determination.
(§23) Time-dependent IC50-measurements were performed as described. Briefly, IC50 values were
(§24) determined for twelve different incubation times and afterwards plotted versus accordingly. Data was
(§25) analyzed according to literature procedure.2

ZR-75-1 = test: Cell viability assay (CellTiter-Glo); type: cell-based
Procedure: Cell Culture and Viability Assay
as §1, §2, §3, §4, §5, §6, §7, §8, §9, §10, §11, §12, §13

AKT3 (PKB gamma) = AKT3 (PKB gamma) (Homo sapiens, UniProt Q9Y243); test: SelectScreen Z'LYTE kinase profiling; type: biochemical; details: ATP at apparent KM
Procedure: as §14, §15, §16, §17, §18, §19

Akt1 = target: T2, Akt1 (Homo sapiens, UniProt P31749); test: Intact protein mass spectrometry, covalent labeling; type: binding; details: 10 µM protein, 100 µM inhibitor, 1 h, denaturing conditions
T2 construct: Purified full-length wtAkt1 was incubated with a 2-fold molar excess
Procedure: In order to provide an orthogonal proof for covalent bond formation, we co-incubated the covalent-allosteric inhibitors with the protein Akt1 and analyzed the samples by mass spectrometry (Fig. 2).
Mass spectra were recorded using denaturing conditions.
We used Akt1 for MS experiments and incubated 10 µM of the protein with 100 µM of the inhibitor in
a buffer for 1 h. We analyzed the samples by mass spectrometry using a Thermo Fisher Scientific
Ultimate 3000 HPLC system connected with a Thermo Fisher Scientific Velos Pro (2D ion trap).
A mass range of 700-2000 m/z was scanned
and raw data were deconvoluted and analyzed with ProMass.

JAK3 = target: T3, JAK3 (Homo sapiens, UniProt P52333); test: SelectScreen Z'LYTE kinase profiling; type: biochemical; details: ATP at apparent KM
T3 sequence (P52333 1-1124): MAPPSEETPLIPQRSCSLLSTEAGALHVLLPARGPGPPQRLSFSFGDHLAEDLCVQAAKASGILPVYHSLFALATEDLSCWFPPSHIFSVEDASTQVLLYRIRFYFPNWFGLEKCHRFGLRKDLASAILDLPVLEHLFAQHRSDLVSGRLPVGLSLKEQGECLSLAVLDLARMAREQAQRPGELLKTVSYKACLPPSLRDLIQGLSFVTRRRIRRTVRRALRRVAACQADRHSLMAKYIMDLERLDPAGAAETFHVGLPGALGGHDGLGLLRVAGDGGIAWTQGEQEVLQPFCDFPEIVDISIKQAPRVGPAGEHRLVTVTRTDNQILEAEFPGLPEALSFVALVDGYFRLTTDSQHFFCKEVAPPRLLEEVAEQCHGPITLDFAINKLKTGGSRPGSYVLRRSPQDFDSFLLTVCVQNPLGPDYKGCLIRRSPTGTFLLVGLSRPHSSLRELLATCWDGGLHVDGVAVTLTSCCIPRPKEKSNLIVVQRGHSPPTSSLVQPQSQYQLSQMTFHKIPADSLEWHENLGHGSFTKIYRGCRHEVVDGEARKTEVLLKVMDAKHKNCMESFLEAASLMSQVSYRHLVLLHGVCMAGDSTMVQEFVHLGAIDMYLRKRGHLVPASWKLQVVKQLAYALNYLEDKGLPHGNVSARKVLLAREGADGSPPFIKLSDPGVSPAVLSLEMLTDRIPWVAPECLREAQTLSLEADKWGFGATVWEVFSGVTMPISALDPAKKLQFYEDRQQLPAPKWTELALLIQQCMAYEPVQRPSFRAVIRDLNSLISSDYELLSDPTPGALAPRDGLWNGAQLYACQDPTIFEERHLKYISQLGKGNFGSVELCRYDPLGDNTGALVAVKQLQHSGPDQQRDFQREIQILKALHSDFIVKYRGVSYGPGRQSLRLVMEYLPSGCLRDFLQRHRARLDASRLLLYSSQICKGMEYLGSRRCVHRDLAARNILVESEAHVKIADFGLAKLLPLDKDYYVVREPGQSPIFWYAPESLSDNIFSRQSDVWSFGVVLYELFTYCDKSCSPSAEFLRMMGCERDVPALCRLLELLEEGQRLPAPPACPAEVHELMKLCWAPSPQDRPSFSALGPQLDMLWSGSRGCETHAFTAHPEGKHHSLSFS
Procedure: as §14, §15, §16, §17, §18, §19

full-length Akt (Akt^wt) [2] = target: T1, full-length Akt (Akt^wt); test: Kinetic characterization by time-dependent IC50 measurements; type: biochemical; details: from time-dependent IC50
Procedure: as §20, §21, §22, §23, §24, §25

[3] = human, 3 µM
Procedure: For this purpose, we used a microsomal stability assay that is a good predictor for phase I metabolic stability.[50]
Phase I metabolic stability assay
Metabolic stability under oxidative conditions was determined by LCMS-based measuring of
degradation of compounds at 3 µM in human and murine liver microsomes over 60 minutes at 37 °C
Calculating the compound half-life t1/2, the in vitro intrinsic clearance CLint is

T47D = test: Cell viability assay (CellTiter-Glo); type: cell-based; details: Homo sapiens, 120 h; T47D (breast), day 5; read-out: Cell viability assay EC50
Procedure: Cell Culture and Viability Assay
as §1, §2, §3, §4, §5, §6, §7, §8, §9, §10, §11, §12, §13

KU-19-19 = test: Cell viability assay (CellTiter-Glo); type: cell-based; details: Homo sapiens, 120 h; KU-19-19 (bladder), day 5; read-out: Cell viability assay EC50
Procedure: Cell Culture and Viability Assay
as §1, §2, §3, §4, §5, §6, §7, §8, §9, §10, §11, §12, §13

AKT1 (PKB alpha) = AKT1 (PKB alpha) (Homo sapiens, UniProt P31749); test: SelectScreen Z'LYTE kinase profiling; type: biochemical; details: ATP at apparent KM
Procedure: as §14, §15, §16, §17, §18, §19

GRK4 = GRK4 (Homo sapiens, UniProt P32298); test: SelectScreen Z'LYTE kinase profiling; type: biochemical; details: ATP at apparent KM
Procedure: as §14, §15, §16, §17, §18, §19

BT-474 = test: Cell viability assay (CellTiter-Glo); type: cell-based; details: Homo sapiens, 120 h; BT-474 (breast), day 5; read-out: Cell viability assay EC50
Procedure: Cell Culture and Viability Assay
as §1, §2, §3, §4, §5, §6, §7, §8, §9, §10, §11, §12, §13

MCF-7 = test: Cell viability assay (CellTiter-Glo); type: cell-based; details: Homo sapiens, MCF7, 120 h; MCF-7 (breast), day 5; read-out: Cell viability assay EC50
Procedure: Cell Culture and Viability Assay
as §1, §2, §3, §4, §5, §6, §7, §8, §9, §10, §11, §12, §13

GRK4, sequence (P32298 whole entry): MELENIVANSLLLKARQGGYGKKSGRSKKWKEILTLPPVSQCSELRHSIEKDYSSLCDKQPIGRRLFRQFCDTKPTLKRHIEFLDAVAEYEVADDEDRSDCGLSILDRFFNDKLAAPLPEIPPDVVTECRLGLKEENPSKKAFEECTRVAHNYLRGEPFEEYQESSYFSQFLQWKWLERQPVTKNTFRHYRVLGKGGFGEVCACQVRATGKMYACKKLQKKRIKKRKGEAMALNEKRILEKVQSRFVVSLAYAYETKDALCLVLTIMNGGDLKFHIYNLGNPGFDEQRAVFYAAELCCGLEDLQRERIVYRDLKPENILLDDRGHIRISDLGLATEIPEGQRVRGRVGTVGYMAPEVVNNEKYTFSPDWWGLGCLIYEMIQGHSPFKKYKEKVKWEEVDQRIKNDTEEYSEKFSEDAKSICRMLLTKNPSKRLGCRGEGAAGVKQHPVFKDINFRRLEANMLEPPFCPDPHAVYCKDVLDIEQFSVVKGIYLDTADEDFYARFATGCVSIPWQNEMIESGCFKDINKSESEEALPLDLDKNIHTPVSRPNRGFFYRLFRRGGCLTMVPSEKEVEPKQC
T1 sequence (P31749 whole entry): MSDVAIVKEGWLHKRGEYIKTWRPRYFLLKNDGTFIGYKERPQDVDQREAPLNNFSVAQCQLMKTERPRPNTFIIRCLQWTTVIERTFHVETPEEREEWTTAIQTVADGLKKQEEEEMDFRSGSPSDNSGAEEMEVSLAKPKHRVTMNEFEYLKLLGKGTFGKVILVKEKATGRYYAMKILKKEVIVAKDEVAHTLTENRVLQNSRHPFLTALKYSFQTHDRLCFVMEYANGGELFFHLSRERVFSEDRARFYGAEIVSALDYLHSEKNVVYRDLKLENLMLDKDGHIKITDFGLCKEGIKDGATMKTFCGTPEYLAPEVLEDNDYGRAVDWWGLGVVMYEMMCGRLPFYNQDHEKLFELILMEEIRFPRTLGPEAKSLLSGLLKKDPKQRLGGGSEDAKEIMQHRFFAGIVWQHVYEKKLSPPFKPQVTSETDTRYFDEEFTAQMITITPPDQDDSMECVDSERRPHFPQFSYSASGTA
GRK6, sequence (P43250 whole entry): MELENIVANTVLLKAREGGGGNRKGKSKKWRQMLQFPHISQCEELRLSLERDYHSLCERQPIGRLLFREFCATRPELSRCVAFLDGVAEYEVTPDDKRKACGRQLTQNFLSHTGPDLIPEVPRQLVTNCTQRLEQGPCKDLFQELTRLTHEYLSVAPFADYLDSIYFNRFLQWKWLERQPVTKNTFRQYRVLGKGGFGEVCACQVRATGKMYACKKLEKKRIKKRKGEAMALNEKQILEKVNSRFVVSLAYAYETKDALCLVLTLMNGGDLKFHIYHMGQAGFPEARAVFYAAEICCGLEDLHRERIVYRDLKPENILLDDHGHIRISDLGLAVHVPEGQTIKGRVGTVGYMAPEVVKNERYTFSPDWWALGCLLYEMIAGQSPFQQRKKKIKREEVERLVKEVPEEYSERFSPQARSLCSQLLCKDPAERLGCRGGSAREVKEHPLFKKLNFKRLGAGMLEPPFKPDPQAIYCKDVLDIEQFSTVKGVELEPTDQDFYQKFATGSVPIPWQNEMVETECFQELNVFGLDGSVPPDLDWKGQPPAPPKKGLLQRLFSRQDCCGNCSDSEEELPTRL
AKT3 (PKB gamma), sequence (Q9Y243 whole entry): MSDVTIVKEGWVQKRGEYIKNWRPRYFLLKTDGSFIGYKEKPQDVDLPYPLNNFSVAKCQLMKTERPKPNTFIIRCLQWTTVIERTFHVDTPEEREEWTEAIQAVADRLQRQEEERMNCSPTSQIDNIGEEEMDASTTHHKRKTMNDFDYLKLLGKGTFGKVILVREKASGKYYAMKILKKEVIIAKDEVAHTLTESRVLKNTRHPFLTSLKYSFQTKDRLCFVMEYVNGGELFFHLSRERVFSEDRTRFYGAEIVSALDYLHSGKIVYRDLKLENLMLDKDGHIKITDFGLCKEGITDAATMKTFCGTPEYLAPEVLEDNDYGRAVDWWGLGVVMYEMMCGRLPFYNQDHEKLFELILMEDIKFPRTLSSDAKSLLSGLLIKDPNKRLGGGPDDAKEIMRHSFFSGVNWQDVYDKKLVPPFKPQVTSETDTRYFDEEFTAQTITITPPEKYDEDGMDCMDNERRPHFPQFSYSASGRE
T2 sequence (P31749 whole entry): as the sequence (P31749 whole entry) above
AKT1 (PKB alpha), sequence (P31749 whole entry): as above

Row | SMILES | EC50 (AN3CA) | inhibition at 1 µM (GRK6) | fold loss in inhibitory activity (IC50) compared to 1 (full-length Akt (Akt^wt) [1]) | IC50 (full-length Akt (Akt^wt) [1]; HTRF KinEASE) | EC50 (ZR-75-1; Homo sapiens, 120 h, ZR-75-1 (breast), day 5, read-out: Cell viability assay EC50) | fold higher inhibitory activity than borussertib (ZR-75-1; ZR-75-1 EC50) | inhibition at 1 µM (AKT3 (PKB gamma)) | labeling of Akt1 by mass spectrometry (Akt1) | inhibition at 1 µM (JAK3) | Ki (full-length Akt (Akt^wt) [2]) | kinact (full-length Akt (Akt^wt) [2]) | kinact/KI (full-length Akt (Akt^wt) [2]) | fold lower stability in microsomes [3] | EC50 (T47D) | EC50 (KU-19-19) | inhibition at 1 µM (AKT1 (PKB alpha)) | inhibition at 1 µM (GRK4) | EC50 (BT-474) | EC50 (MCF-7)
1 | C=CC(=O)Nc1ccc2c(c1)n(C1CCN(Cc3ccc(-c4nc5cc[nH]c(=O)c5cc4-c4ccccc4)cc3)CC1)c(=O)n2C [24b] | 230 ± 75 nM | 0% | 3 fold | 3 ± 0.3 nM | 2 nM | 2 fold | 75% | complete labeling | 23% | 10.7 ± 0.5 nM | 0.00202 s⁻¹ | 190000 ± 25000 M⁻¹ s⁻¹ | 4 fold | 11 ± 2 nM | 7160 ± 2110 nM | 98% | -1% | 109 ± 16 nM | 32 ± 8 nM
2 | C=CC(=O)Nc1cccc(C(=O)NC2CCN(Cc3ccc(-c4nc5cc[nH]c(=O)c5cc4-c4ccccc4)cc3)CC2)c1 [30b] |  | 3% |  |  |  |  |  |  | 26% |  |  |  |  |  |  |  | 6% |  | 
3 | C=CC(=O)Nc1cc(NC(=O)NC2CCN(Cc3ccc(-c4nc5cc[nH]c(=O)c5cc4-c4ccccc4)cc3)CC2)ccc1Cl [compound 27] |  |  |  |  |  |  |  |  | 17% |  |  |  |  |  |  |  | 11% |  | 
